Common to all, as to type: in vivo
Series [1] concerns Echinochloa oryzacola Vasing. Description: Test Example 2: herbicidal activity, application during weed generation in submerged conditions (symbol A). The note with it: Table 23; application herbicide amount 320 g/ha; grade 0-5 by criteria of Test Example 1. The essentials: (§1)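 Compound was applied as a water-diluted emulsion into the standing water of flooded pots (4 cm) once co-sown weeds reached one to two leaves. Greenhouse temperature was 25° C. to 30° C., soil was alluvial, and each species was rated visually after 3 weeks.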

The subject of the next series is Scirpus juncoides. Description: Test Example 2: herbicidal activity, application during weed generation in submerged conditions (symbol B). The following applies: Table 23; application herbicide amount 320 g/ha; grade 0-5 by criteria of Test Example 1. A digest of the protocol: as §1
For the next series, the system named is Monochoria vaginalis. As to the kind of experiment: Test Example 2: herbicidal activity, application during weed generation in submerged conditions (symbol C). The following applies: Table 23; application herbicide amount 320 g/ha; grade 0-5 by criteria of Test Example 1. A digest of the protocol: as §1
For series [2], the system named is Echinochloa crus-galli var. crus-galli. As to the kind of experiment: Test Example 3: herbicidal effect by foliage application, Wagner pot (symbol H). The following applies: application herbicide amount 320 g/ha. A digest of the protocol:
(§2)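 In a shallow-flooded alluvial soil system held at 25–30 °C, plants including rice grew for 14 days and were then sprayed over the foliage with emulsion diluted to a fixed herbicide amount. Visual rating followed at 3 weeks.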

The next series deals with Leptochloa chinensis. Description: Test Example 3: herbicidal effect by foliage application, Wagner pot (symbol D). The note with it: application herbicide amount 320 g/ha. The essentials: as §2
The test system of the next series is Digitaria ciliaris. Description: Test Example 4: herbicidal effect by soil treatment (symbol F). The note with it: 320 g/ha. The essentials:
(§3)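 Seeds were sown in sterilized diluvial soil, covered with about 1.5 cm of soil, and the soil surface was sprayed with a water-diluted emulsion of the compound at a predetermined rate. Plants grew in a greenhouse at 25° C. to 30° C.; effects were scored visually 3 weeks after application.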

Another series relates to Setaria viridis. Description: Test Example 4: herbicidal effect by soil treatment (symbol G). The note with it: 320 g/ha. The essentials:
as §3

The subject of the next series is Avena fatua. Description: Test Example 4: herbicidal effect by soil treatment (symbol I). The following applies: 320 g/ha. The essentials:
as §3

Series [3] concerns Alopecurus myosuroides. As to the kind of experiment: Test Example 4: herbicidal effect by soil treatment (symbol J). The note with it: 320 g/ha. A digest of the protocol:
as §3

Another series concerns Lolium multiflorum Lam. Description: Test Example 4: herbicidal effect by soil treatment (symbol K). The note with it: 320 g/ha. The essentials: as §3
In series [4] the test system is Stellaria media. As to the kind of experiment: Test Example 4: herbicidal effect by soil treatment (symbol P). The following applies: 320 g/ha. The essentials:
as §3

The test system of the next series is Veronica persica. Description: Test Example 4: herbicidal effect by soil treatment (symbol R). The following applies: 320 g/ha. The essentials: as §3
The subject of the next series is rice. As to the kind of experiment: Test Example 4: effect on crop by soil treatment (symbol b). The note with it: 320 g/ha. The essentials:
(§4)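 Crop seed is sown in spots together with several weed species in a box of sterilized diluvial soil. It is covered by about 1.5 cm of soil and kept in a greenhouse held between 25° C. and 30° C.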

Another series relates to wheat. Description: Test Example 4: effect on crop by soil treatment (symbol e). The following applies: 320 g/ha. A digest of the protocol: as §4
Series [5] concerns Echinochloa crus-galli var. crus-galli. Description: Test Example 5: herbicidal effect by foliage application, plastic box (symbol H). The note with it: 320 g/ha, 3 weeks after application. The essentials: (§5)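 Post-emergence spray; diluvial soil (sterilized), ~1.5 cm seed cover; greenhouse 25–30° C; 14-day-old plants; water-diluted emulsion at predetermined dose; visual score at 3 wk post-treatment.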

The test system of series [6] is Alopecurus myosuroides. As to the kind of experiment: Test Example 5: herbicidal effect by foliage application, plastic box (symbol J). The note with it: 320 g/ha, 3 weeks after application. A digest of the protocol: as §5
For the next series, the system named is Amaranthus retroflexus. Description: Test Example 5: herbicidal effect by foliage application, plastic box (symbol N). The following applies: 320 g/ha, 3 weeks after application. The essentials:
as §5

The next series deals with Chenopodium album. As to the kind of experiment: Test Example 5: herbicidal effect by foliage application, plastic box (symbol O). The following applies: 320 g/ha, 3 weeks after application. The essentials:
as §5

The test system of series [7] is Stellaria media. Description: Test Example 5: herbicidal effect by foliage application, plastic box (symbol P). The following applies: 320 g/ha, 3 weeks after application. A digest of the protocol:
as §5

A further series concerns rice plant. As to the kind of experiment: Test Example 5: effect on crop by foliage application, plastic box (symbol b). The following applies: 320 g/ha, 3 weeks after application. A digest of the protocol: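 Foliage-application test plants come from spot sowing in sterilized diluvial soil under a soil layer of about 1.5 cm, grown at 25° C. to 30° C. in a greenhouse.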

As to `Cc1cc(C)c(C2=C(O)CC(CC(=NOCC(F)(F)F)C3CC3)C2=O)c(C)c1` (stereo not drawn) [1-131], the “Herbicidal effect grade, A: Echinochloa oryzacola Vasing.” value in [1] is 4 (Herbicidal ratio of 70% or higher and lower than 90%). The “Herbicidal effect grade, B: Scirpus juncoides” value (shortened to “Herbicidal effect grade, B”) in the series with Scirpus juncoides was 4 (Herbicidal ratio of 70% or higher and lower than 90%). For the same compound, in the series on Monochoria vaginalis, the “Herbicidal effect grade, C: Monochoria vaginalis” value (from here on “Herbicidal effect grade, C”) is 0 (Herbicidal ratio of 5% or lower (almost no effect)). Further, in series [2], the “herbicidal effect on H (Echinochloa crus-galli var. crus-galli), grade 0-5” value (shortened to “herbicidal effect on H”) is on record as 5 (Herbicidal ratio of 90% or more (almost completely withered)). Further, the “herbicidal effect on D (Leptochloa chinensis), grade 0-5” value (“herbicidal effect on D” below) with Leptochloa chinensis is listed as 5 (Herbicidal ratio of 90% or more (almost completely withered)). Besides, the “F: Digitaria ciliaris, herbicidal effect grade” value (from here on “F: Digitaria ciliaris”) in the series on Digitaria ciliaris is 4 (Herbicidal ratio of 70% or higher and lower than 90%). In the series with Setaria viridis, the “G: Setaria viridis, herbicidal effect grade” value (“G: Setaria viridis” below) was 5 (Herbicidal ratio of 90% or more (almost completely withered)). Besides, the “I: Avena fatua, herbicidal effect grade” value in the series on Avena fatua was 3 (Herbicidal ratio of 40% or higher and lower than 70%). In the series on Alopecurus myosuroides [3], the “J: Alopecurus myosuroides, herbicidal effect grade” value is given as 5 (Herbicidal ratio of 90% or more (almost completely withered)). Further, in the series with Lolium multiflorum Lam., the “K: Lolium multiflorum Lam., herbicidal effect grade” value is 5 (Herbicidal ratio of 90% or more (almost completely withered)). Moreover, the “P: Stellaria media, herbicidal effect grade” value in the series on Stellaria media [4] is given as 0 (Herbicidal ratio of 5% or lower (almost no effect)). For the same compound, the “R: Veronica persica, herbicidal effect grade” value (“R: Veronica persica” below) with Veronica persica is 3 (Herbicidal ratio of 40% or higher and lower than 70%). The “b: directly sowed rice plant, effect grade on crop” value in the series on rice is listed as 5 (Herbicidal ratio of 90% or more (almost completely withered)). Besides, the “e: wheat, effect grade on crop” value in the series with wheat is reported as 0 (Herbicidal ratio of 5% or lower (almost no effect)). For the same compound, the “H: Echinochloa crus-galli var. crus-galli, herbicidal effect (criteria 0-5)” value in series [5] is 4 (Herbicidal ratio of 70% or higher and lower than 90%). Also, in the series on Alopecurus myosuroides [6], the “J: Alopecurus myosuroides, herbicidal effect (criteria 0-5)” value is 5 (Herbicidal ratio of 90% or more (almost completely withered)). Moreover, the “N: Amaranthus retroflexus, herbicidal effect (criteria 0-5)” value (“N: Amaranthus retroflexus” for short) with Amaranthus retroflexus was 0 (Herbicidal ratio of 5% or lower (almost no effect)). Also, the “O: Chenopodium album, herbicidal effect (criteria 0-5)” value (from here on “O: Chenopodium album”) in the series with Chenopodium album was 0 (Herbicidal ratio of 5% or lower (almost no effect)). The “P: Stellaria media, herbicidal effect (criteria 0-5)” value (“P: Stellaria media … (criteria 0-5)” for short) in the series with Stellaria media [7] is recorded as 0 (Herbicidal ratio of 5% or lower (almost no effect)). Besides, the “b: directly sowed rice plant, effect on crop (criteria 0-5)” value in the series with rice plant is 4 (Herbicidal ratio of 70% or higher and lower than 90%).

With `CON=C(CC1CC(O)=C(c2c(C)cc(C)cc2C)C1=O)c1ccc(F)cc1` (stereo not drawn) [1-133], the “Herbicidal effect grade, A: Echinochloa oryzacola Vasing.” value in [1] is 1 (Herbicidal ratio of 5% or higher and lower than 20%). In the series on Scirpus juncoides, the “Herbicidal effect grade, B” value was 0 (Herbicidal ratio of 5% or lower (almost no effect)). Also, the “Herbicidal effect grade, C” value in the series with Monochoria vaginalis is 0 (Herbicidal ratio of 5% or lower (almost no effect)). Moreover, the “herbicidal effect on H” value in [2] is 3 (Herbicidal ratio of 40% or higher and lower than 70%). Further, the “herbicidal effect on D” value in the series with Leptochloa chinensis is given as 0 (Herbicidal ratio of 5% or lower (almost no effect)). Moreover, in the series with Digitaria ciliaris, the “F: Digitaria ciliaris” value is 4 (Herbicidal ratio of 70% or higher and lower than 90%). Further, the “G: Setaria viridis” value in the series with Setaria viridis is 4 (Herbicidal ratio of 70% or higher and lower than 90%). In addition, in the series with Avena fatua, the “I: Avena fatua, herbicidal effect grade” value is 0 (Herbicidal ratio of 5% or lower (almost no effect)). Moreover, the “J: Alopecurus myosuroides, herbicidal effect grade” value in the series on Alopecurus myosuroides [3] was 5 (Herbicidal ratio of 90% or more (almost completely withered)). In the series on Lolium multiflorum Lam., the “K: Lolium multiflorum Lam., herbicidal effect grade” value is 3 (Herbicidal ratio of 40% or higher and lower than 70%). Moreover, in the series on Stellaria media [4], the “P: Stellaria media, herbicidal effect grade” value is 0 (Herbicidal ratio of 5% or lower (almost no effect)). Besides, the “R: Veronica persica” value in the series on Veronica persica is on record as 0 (Herbicidal ratio of 5% or lower (almost no effect)). In addition, in the series with rice, the “b: directly sowed rice plant, effect grade on crop” value is given as 0 (Herbicidal ratio of 5% or lower (almost no effect)). Further, the “e: wheat, effect grade on crop” value in the series with wheat is 0 (Herbicidal ratio of 5% or lower (almost no effect)). The “H: Echinochloa crus-galli var. crus-galli, herbicidal effect (criteria 0-5)” value in series [5] was 4 (Herbicidal ratio of 70% or higher and lower than 90%). Moreover, the “J: Alopecurus myosuroides, herbicidal effect (criteria 0-5)” value with Alopecurus myosuroides [6] was 4 (Herbicidal ratio of 70% or higher and lower than 90%). For the same compound, in the series on Amaranthus retroflexus, the “N: Amaranthus retroflexus” value is reported as 0 (Herbicidal ratio of 5% or lower (almost no effect)). In addition, in the series with Chenopodium album, the “O: Chenopodium album” value was 0 (Herbicidal ratio of 5% or lower (almost no effect)). Further, in the series on Stellaria media [7], the “P: Stellaria media … (criteria 0-5)” value was 3 (Herbicidal ratio of 40% or higher and lower than 70%). In addition, in the series with rice plant, the “b: directly sowed rice plant, effect on crop (criteria 0-5)” value is 1 (Herbicidal ratio of 5% or higher and lower than 20%).

With `CON=C(C)CC1CC(OC(=O)CSc2ccccc2)=C(c2c(C)cc(C)cc2C)C1=O` (stereo not drawn) [1-134], the “Herbicidal effect grade, A: Echinochloa oryzacola Vasing.” value in series [1] is 5 (Herbicidal ratio of 90% or more (almost completely withered)). Also, the “Herbicidal effect grade, B” value in the series on Scirpus juncoides is 4 (Herbicidal ratio of 70% or higher and lower than 90%). Further, the “Herbicidal effect grade, C” value with Monochoria vaginalis was 3 (Herbicidal ratio of 40% or higher and lower than 70%). In addition, the “herbicidal effect on H” value in series [2] is listed as 5 (Herbicidal ratio of 90% or more (almost completely withered)). The “herbicidal effect on D” value in the series with Leptochloa chinensis is 5 (Herbicidal ratio of 90% or more (almost completely withered)). For the same compound, in the series with Digitaria ciliaris, the “F: Digitaria ciliaris” value is given as 5 (Herbicidal ratio of 90% or more (almost completely withered)). Also, the “G: Setaria viridis” value in the series on Setaria viridis is on record as 5 (Herbicidal ratio of 90% or more (almost completely withered)). Besides, the “I: Avena fatua, herbicidal effect grade” value with Avena fatua is 2 (Herbicidal ratio of 20% or higher and lower than 40%). Also, the “J: Alopecurus myosuroides, herbicidal effect grade” value in the series on Alopecurus myosuroides [3] is listed as 5 (Herbicidal ratio of 90% or more (almost completely withered)). Besides, in the series on Lolium multiflorum Lam., the “K: Lolium multiflorum Lam., herbicidal effect grade” value is recorded as 5 (Herbicidal ratio of 90% or more (almost completely withered)). In the series on Stellaria media [4], the “P: Stellaria media, herbicidal effect grade” value is recorded as 0 (Herbicidal ratio of 5% or lower (almost no effect)). Besides, the “R: Veronica persica” value with Veronica persica is listed as 0 (Herbicidal ratio of 5% or lower (almost no effect)). Further, the “b: directly sowed rice plant, effect grade on crop” value with rice is reported as 5 (Herbicidal ratio of 90% or more (almost completely withered)). Moreover, in the series on wheat, the “e: wheat, effect grade on crop” value was 2 (Herbicidal ratio of 20% or higher and lower than 40%). In addition, the “H: Echinochloa crus-galli var. crus-galli, herbicidal effect (criteria 0-5)” value in series [5] is reported as 5 (Herbicidal ratio of 90% or more (almost completely withered)). Besides, in the series on Alopecurus myosuroides [6], the “J: Alopecurus myosuroides, herbicidal effect (criteria 0-5)” value is listed as 5 (Herbicidal ratio of 90% or more (almost completely withered)). In addition, in the series with Amaranthus retroflexus, the “N: Amaranthus retroflexus” value is 1 (Herbicidal ratio of 5% or higher and lower than 20%). Besides, the “O: Chenopodium album” value with Chenopodium album was 4 (Herbicidal ratio of 70% or higher and lower than 90%). The “P: Stellaria media … (criteria 0-5)” value with Stellaria media [7] was 2 (Herbicidal ratio of 20% or higher and lower than 40%). The “b: directly sowed rice plant, effect on crop (criteria 0-5)” value with rice plant is reported as 5 (Herbicidal ratio of 90% or more (almost completely withered)).
